Holding throughout (assay): UV-vis spectrophotometric hydrolysis assay, Michaelis-Menten fit
Data set [1] has as its system T1, ApaA.
T1 construct: His6-tagged, plasmid pTIP-apaA (pTIPQC1), expressed in Rhodococcus erythropolis L88, Ni-NTA purified
In kind it is biochemical, Rhodococcus sp. NyZ502. The settings on record: 100 mM phosphate buffer pH 7.4; 30 °C.

Substrate in data set [2]: CC(=O)Nc1ccc(O)cc1
In kind it is biochemical, bacterium CSBL00001. The settings on record: 100 mM phosphate buffer pH 7.4, 30 °C.

Substrate in data set [3]: CC(=O)Nc1ccc([N+](=O)[O-])cc1
The data set is classed as biochemical, bacterium CSBL00001. The settings on record: 100 mM phosphate buffer pH 7.4, 30 °C.

In general, Km refers to the concentration of substrate that gives half-maximal velocity. Broadly, the kcat is the number of substrate molecules converted per active site and unit of time at saturation.

Consider `CC(=O)Nc1ccc([N+](=O)[O-])cc1` [4-nitroacetanilide], for which, in data set [1], the Km was 26.6 ± 4.21 µM. The same measure, in the same setting: under `CC(=O)Nc1ccc(O)cc1` [Acetaminophen] stands 8.96 µM; under `CC(=O)Nc1ccccc1` [acetanilide], 30.2 ± 3.86 µM.

B1: AAA (bacterium CSBL00001) (protein)
chain: MGKSHSPVHWKSAAEIVELVKSKQISPREVVESTIDLIEQRDPGLNAVVYKAYDEAREKAAALERRIMQGEPVGMLAGVPTLMKDLFAAKPGWPSTLGGIRALKDARGAAGVWSTYPLKMSGEDSLLLGQTNSPVYGFRGTTDNTFFGPTRNPFNLDFNAGGSSGGAAALVADGIVPVAGGTDGGGSIRIPAAWTNTYGFQPSIGRVPFKSRPNAFHPGPYLYEGPITRTVRDAALAMNVLHGFDRRDPASLRVKLDFTSALAQGVRGKKIGLTLNYGVFPVQQEIQDLIGKAARVFTELGAHVEFVDLGIPYSQKQMSDAWCRMIAIPTVASMQALRKEGIDLYGEHRADIPDALMKWIDAVADISVQQISADQLLRTTVFDCMNGVFDRFDLLLAPTLACMPVRNATDGCTEGPSQINGEEIDPLIGWCMTYLTNFSGHPSASVPAGLIDGLPAGMLIIGDRQADLDVIAASAAFERASPWSQYYDIPAGRPL
notes: His6-tagged, plasmid pET-aaa (pET-28a(+)), expressed in E. coli BL21(DE3), Ni-NTA purified
Take B1: the Km turned out to be 22.13 µM in data set [2] and 16.82 ± 5.55 µM in data set [3]. Further, the catalytic constant (kcat) in data set [3] stood at 5.65 ± 0.54 s⁻¹.

Source of the values: publication PMC11887370, “The universal accumulation of p-aminophenol during the microbial degradation of analgesic and antipyretic acetaminophen in WWTPs: a novel metagenomic perspective” (Microbiome, 2025).
